26 molecules from patent publication US7858621B2 (Amorepacific Corporation, priority 2006, dated 2010) can be followed below.

Like-named read-outs stand apart in the source and are kept apart here.

Data set [1] in a line: Metabolic stability test in rat liver microsomes. It counts as in vitro ADME. The note with it: 5 μg/mL, 0.5 mg/mL protein, 30 min incubation. As to the method:
(§1) 1) Metabolic Stability Test
(§2) Diluted sample (final 5 μg/mL in 0.1 M potassium phosphate buffer, pH 7.4) was pre-incubated with cofactors (glucose-6-phosphate 3.3 mM, NADPH 1.3 mM, MgCl2 0.16 mM, glucose-6-phosphate dehydrogenase 0.4 U/mL final) and enzyme reaction was initiated with the addition of human intestinal (1 mg/mL protein) or rat liver microsomes (0.5 mg/mL protein). Reaction was terminated with 2× volume of cold acetonitrile after 1 min (initial point) or 30 min (reacted sample) incubation. In case of human intestinal microsomes, 2 hr reaction time was employed. Reaction mixture was undergone extraction in shaking bath over 20 min, after which resultant supernatant was separated by centrifugation. Area of parent compound peak was analyzed in the supernatant using HPLC-UV method and the extent of metabolism was shown as the decreased compound peak area (%) from initial point.
A general note: Liver microsomes are a subcellular fraction often used to study metabolism.

The nature of data set [2]: Metabolic stability test in human intestinal microsomes. In kind it is in vitro ADME. The note with it: 5 μg/mL, 1 mg/mL protein, 2 hr reaction time. As to the method:
as §1, §2

In a further data set the target is T1, vanilloid receptor (Rattus norvegicus, UniProt O35433).
T1 construct: DRG nerve cells from the primary culture of 2 days were equilibrated; endogenous in cells; host or cells: primary culture of dorsal root ganglion neurons from neonatal SD rats
T1 sequence (O35433 whole entry): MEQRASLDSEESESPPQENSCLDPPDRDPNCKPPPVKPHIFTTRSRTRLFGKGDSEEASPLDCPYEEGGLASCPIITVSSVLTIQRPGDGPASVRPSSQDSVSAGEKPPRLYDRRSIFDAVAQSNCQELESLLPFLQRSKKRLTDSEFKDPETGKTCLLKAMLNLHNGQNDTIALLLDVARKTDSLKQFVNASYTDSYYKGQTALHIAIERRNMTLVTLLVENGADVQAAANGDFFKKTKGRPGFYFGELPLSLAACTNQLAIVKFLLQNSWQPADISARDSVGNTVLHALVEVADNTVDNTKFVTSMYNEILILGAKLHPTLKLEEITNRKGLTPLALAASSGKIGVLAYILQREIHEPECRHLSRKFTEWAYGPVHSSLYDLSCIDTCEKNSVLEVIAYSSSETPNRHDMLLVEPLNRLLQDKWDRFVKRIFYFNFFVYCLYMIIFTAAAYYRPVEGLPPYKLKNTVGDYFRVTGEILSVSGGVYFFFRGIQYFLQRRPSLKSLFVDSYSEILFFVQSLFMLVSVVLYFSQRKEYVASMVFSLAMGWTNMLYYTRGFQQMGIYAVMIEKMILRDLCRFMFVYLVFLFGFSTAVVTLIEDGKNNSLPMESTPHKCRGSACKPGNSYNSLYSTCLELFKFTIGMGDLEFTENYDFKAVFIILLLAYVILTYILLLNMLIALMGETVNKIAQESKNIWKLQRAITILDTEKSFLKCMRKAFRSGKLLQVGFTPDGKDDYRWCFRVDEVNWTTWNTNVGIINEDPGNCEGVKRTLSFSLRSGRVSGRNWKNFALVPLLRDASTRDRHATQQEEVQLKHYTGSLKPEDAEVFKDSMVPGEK
Kind of data set: 45Ca influx test in cultured neonatal rat DRG neurons, inhibition of capsaicin response. In kind it is cell-based. In short, it runs like this: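 45Ca influx measured by scintillation counting of SDS-eluted neurons after 10 min at room temperature with test compound, 0.5 μM capsaicin (final) and 10 μCi/ml 45Ca in Ca/Mg-free HEPES-HBSS pH 7.4. Cells: primary DRG neurons from newborn SD rats, cultured 2 days with NGF and Ara-C.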

Data set [3] in a line: PK study in rats, single oral administration. Further details: AUC: concentration or dose not given beside the values. The note with it: rat, plasma. In kind it is in vivo. The procedure:
Pharmacokinetics of compounds in rats were analyzed using the following experiment. Rats were fasted overnight prior to administration and until approximately 4 hours after administration. Rats were given a single oral administration of compound at same dose. Administration volume was 10 ml/kg. Blood samples were collected from the retro-orbital sinus at various times over the following 7 hrs. Immediately after each collection, plasmas were separated from blood cells by centrifugation and stored at −20° C. until the analysis was performed. The plasma samples were analyzed using a reverse phase high-performance chromatography (HPLC) method.

[4] abbreviates: neonatal rat DRG neurons, capsaicin 0.5 μM, 45Ca influx, read-out: Antagonist Calcium Uptake Test (IC50).
The mark [5] stands for this setting: Table 3, unit inferred, read-out: IC50.

As to `C#Cc1cc(CNC(=O)/C=C/c2ccc(C(F)(F)F)nc2OCCOC)cc(F)c1NS(C)(=O)=O` [Example 75, N-(3-Ethynyl-5-fluoro-4-methanesulfonylamino-benzyl)-3-[2-(2-methoxy-ethoxy)-6-trifluoromethyl-pyridin-3-yl]-acrylamide], in data set [1], the “Stability RLM (% metabolized in rat liver microsomes)” value is reported as 17.0%. In addition, the “Stability HIM (% metabolized in human intestinal microsomes)” value in data set [2] came out at 17.0%. At vanilloid receptor (setting [4]), the concentration for half-maximal inhibition (IC50) (in general, the midpoint of a concentration-inhibition curve) is 370 nM.

In the case of `COCCNc1nc(C(F)(F)F)ccc1/C=C/C(=O)NCc1ccc(NS(C)(=O)=O)c(F)c1` [Example 45, N-(3-Fluoro-4-methanesulfonylamino-benzyl)-3-[2-(2-methoxy-ethylamino)-6-trifluoromethyl-pyridin-3-yl]-acrylamide], in data set [1], the “Stability RLM (% metabolized in rat liver microsomes)” value was 10%. The “Stability HIM (% metabolized in human intestinal microsomes)” value in data set [2] is 8.0%. For the same molecule, the IC50 at vanilloid receptor (setting [4]) stood at 510 nM.

With `C=Cc1cc(CNC(=O)/C=C/c2ccc(C(C)(C)C)cc2N2CCOCC2)cc(F)c1NS(C)(=O)=O` [Examples 22], the Cmax (usually the highest concentration seen after dosing) in data set [3] is less than 100 ng/mL.

`C#Cc1cc(CNC(=O)/C=C/c2ccc(C(C)(C)C)cc2N2CCOCC2)cc(F)c1NS(C)(=O)=O` [drawing 350, reference compound]: in data set [3], the AUC (in general, the area under the concentration-time curve, a measure of exposure) was 706 ng·h/mL; the concentration peaked (Cmax) at 334 ng/mL; the Tmax (in general, the time from dosing to the highest level) was 2 h; the half-life (in general, the time needed for the level to fall by half in the phase considered) is 0.932 h. Also, on vanilloid receptor (setting [5]), the IC50 came to 860 nM.

For the molecule `CCCNc1nc(C(F)(F)F)ccc1/C=C/C(=O)NCc1cc(F)c(NS(C)(=O)=O)c(F)c1` [Example 222, N-(3,5-Difluoro-4-methanesulfonylamino-benzyl)-3-(2-propylamino-6-trifluoromethyl-pyridin-3-yl)-acrylamide], the “Stability RLM (% metabolized in rat liver microsomes)” value in data set [1] amounted to 0%. Also, the “Stability HIM (% metabolized in human intestinal microsomes)” value in data set [2] is 0%. Also, at vanilloid receptor (setting [4]), the IC50 was found to be 49 nM.

`C=Cc1cc(CNC(=O)/C=C/c2ccc(C(C)(C)C)cc2NC(C)C)cc(F)c1NS(C)(=O)=O` [Examples 34] yielded a Cmax in data set [3] of less than 100 ng/mL.

Consider `C#Cc1cc(CNC(=O)/C=C/c2ccc(C(F)(F)F)nc2NCCOC)cc(F)c1NS(C)(=O)=O` [Example 65, N-(3-Ethynyl-5-fluoro-4-methanesulfonylamino-benzyl)-3-[2-(2-methoxy-ethylamino)-6-trifluoromethyl-pyridin-3-yl]-acrylamide], for which, in data set [1], the “Stability RLM (% metabolized in rat liver microsomes)” value was 15.3%. Besides, the “Stability HIM (% metabolized in human intestinal microsomes)” value in data set [2] was 14.0%. At vanilloid receptor (setting [4]), the IC50 was 89 nM.

Regarding `C#Cc1cc(CNC(=O)/C=C/c2ccc(C(F)(F)F)nc2CCC)cc(F)c1NS(C)(=O)=O` [Example 206, N-(3-Ethynyl-5-fluoro-4-methanesulfonylamino-benzyl)-3-(2-propyl-6-trifluoromethyl-pyridin-3-yl)-acrylamide], in data set [3], the AUC was found to be 25900 ng·h/mL, the concentration peaked (Cmax) at 5500 ng/mL, the Tmax was 3.5 h and the half-life was 1.42 h. Also, the IC50 on vanilloid receptor (setting [4]) came to 40 nM.

Turning to `C=Cc1cc(CNC(=O)/C=C/c2ccc(C(C)(C)C)cc2)cc(F)c1NS(C)(=O)=O` [Examples 16], the peak concentration (Cmax) in data set [3] was less than 100 ng/mL. Moreover, at vanilloid receptor (setting [5]), the IC50 was found to be 47 nM.

With `CCCN(C)c1nc(C(F)(F)F)ccc1/C=C/C(=O)NCc1ccc(NS(C)(=O)=O)c(F)c1` [Example 158, N-(3-Fluoro-4-methanesulfonylamino-benzyl)-3-[2-(N-methyl-N-propyl-amino)-6-trifluoromethyl-pyridin-3-yl]-acrylamide], the IC50 on vanilloid receptor (setting [4]) was 480 nM.

Turning to `CC(C)c1nc(C(F)(F)F)ccc1/C=C/C(=O)NCc1cc(F)c(NS(C)(=O)=O)c(F)c1` [Example 232, N-(3,5-Difluoro-4-methanesulfonylamino-benzyl)-3-(2-isopropyl-6-trifluoromethyl-pyridin-3-yl)-acrylamide], at vanilloid receptor (setting [4]), the IC50 worked out at 190 nM.

Turning to `CCC(C)Nc1nc(C(F)(F)F)ccc1/C=C/C(=O)NCc1cc(F)c(NS(C)(=O)=O)c(F)c1` (stereo not drawn) [Example 129, 3-(2-sec-Butylamino-6-trifluoromethyl-pyridin-3-yl)-N-(3,5-difluoro-4-methanesulfonylamino-benzyl)-acrylamide], the IC50 on vanilloid receptor (setting [4]) is 47 nM.

With `Cc1cc(CNC(=O)/C=C/c2ccc(C(F)(F)F)nc2CC(C)C)ccc1NS(C)(=O)=O` [Example 174, 3-(2-Isobutyl-6-trifluoromethyl-pyridin-3-yl)-N-(4-methanesulfonylamino-3-methyl-benzyl)-acrylamide], the IC50 on vanilloid receptor (setting [4]) came out at 70 nM.

On to `CS(=O)(=O)Nc1c(F)cc(CNC(=O)/C=C/c2ccc(C(F)(F)F)nc2N2CCOCC2)cc1C(F)(F)F` [Examples 22], for which the IC50 on vanilloid receptor (setting [4]) turned out to be 3300 nM.

In the case of `CCCCc1nc(C(F)(F)F)ccc1/C=C/C(=O)NCc1cc(F)c(NS(C)(=O)=O)c(F)c1` [Example 205, 3-(2-Butyl-6-trifluoromethyl-pyridin-3-yl)-N-(3,5-difluoro-4-methanesulfonylamino-benzyl)-acrylamide], the IC50 on vanilloid receptor (setting [4]) came out at 86 nM.

With `CCCc1nc(C(F)(F)F)ccc1/C=C/C(=O)NCc1ccc(NS(C)(=O)=O)c(C)c1` [Example 208, N-(4-Methanesulfonylamino-3-methyl-benzyl)-3-(2-propyl-6-trifluoromethyl-pyridin-3-yl)-acrylamide], the IC50 on vanilloid receptor (setting [4]) came to 49 nM.

As for `CCCc1nc(C(F)(F)F)ccc1/C=C/C(=O)NCc1ccc(NS(C)(=O)=O)cc1` [Example 252, N-(4-Methanesulfonylamino-benzyl)-3-(2-propyl-6-trifluoromethyl-pyridin-3-yl)-acrylamide], the IC50 at vanilloid receptor (setting [4]) worked out at 330 nM.

In the case of `C#Cc1cc(CNC(=O)/C=C/c2ccc(C(F)(F)F)nc2OCC2CC2)cc(F)c1NS(C)(=O)=O` [Example 93, 3-(2-Cyclopropylmethoxy-6-trifluoromethyl-pyridin-3-yl)-N-(3-ethynyl-5-fluoro-4-methanesulfonylamino-benzyl)-acrylamide], the IC50 at vanilloid receptor (setting [4]) is 360 nM.

For the molecule `CC(C)(C)c1cc(C(F)(F)F)c(/C=C/C(=O)NCc2ccc(NS(C)(=O)=O)c(F)c2)cn1` [Example 17, 3-(6-tert-Butyl-4-trifluoromethyl-pyridin-3-yl)-N-(3-fluoro-4-methanesulfonylamino-benzyl)-acrylamide], the IC50 on vanilloid receptor (setting [4]) was 570 nM.

As for `Cc1cc(CNC(=O)/C=C/c2ccc(C(F)(F)F)nc2NCc2ccccc2)ccc1NS(C)(=O)=O` [Example 191, 3-(2-Benzylamino-6-trifluoromethyl-pyridin-3-yl)-N-(4-methanesulfonylamino-3-methyl-benzyl)-acrylamide], the IC50 on vanilloid receptor (setting [4]) was found to be 220 nM.

On to `C#Cc1cc(CNC(=O)/C=C/c2ccc(C(F)(F)F)nc2)cc(F)c1NS(C)(=O)=O` [Example 57, N-(3-Ethynyl-5-fluoro-4-methanesulfonylamino-benzyl)-3-(6-trifluoromethyl-pyridin-3-yl)-acrylamide], for which, in data set [3], the AUC was found to be 56500 ng·h/mL, the maximum concentration (Cmax) stood at 2200 ng/mL, the Tmax was found to be 0.833 h and the half-life is 3.95 h. At vanilloid receptor (setting [5]), the IC50 is more than 10000 nM. The IC50 on vanilloid receptor (setting [4]) is more than 10000 nM.

For `CS(=O)(=O)Nc1ccc(CNC(=O)/C=C/c2ccc(C(F)(F)F)nc2Sc2ccccc2)cc1F` [Example 140, N-(3-fluoro-4-methanesulfonylamino-benzyl)-3-(2-phenylthio-6-trifluoromethyl-pyridin-3-yl)-acrylamide], on vanilloid receptor (setting [4]), the IC50 was found to be 9700 nM.

Take `CCCNc1nc(C(F)(F)F)ccc1/C=C/C(=O)NCc1ccc(NS(C)(=O)=O)c(C)c1` [Example 225, N-(4-Methanesulfonylamino-3-methyl-benzyl)-3-(2-propylamino-6-trifluoromethyl-pyridin-3-yl)-acrylamide]: at vanilloid receptor (setting [4]), the IC50 was 52 nM.

In the case of `Cc1ccc(OCC(=O)NCc2ccc(NS(C)(=O)=O)c(F)c2)c(CO)n1` [Example 31, N-(3-Fluoro-4-methanesulfonylamino-benzyl)-2-(2-hydroxymethyl-6-methyl-pyridin-3-yloxy)-acetamide], the IC50 on vanilloid receptor (setting [4]) is more than 10000 nM.

Regarding `CC(C)Nc1nc(C(F)(F)F)ccc1/C=C/C(=O)N[C@H](C)c1cc(F)c(NS(C)(=O)=O)c(F)c1` [Example 227, (R)—N-[1-(3,5-Difluoro-4-methanesulfonylamino-phenyl)-ethyl]-3-(2-isopropylamino-6-trifluoromethyl-pyridin-3-yl)-acrylamide], on vanilloid receptor (setting [4]), the IC50 turned out to be 19 nM.

As for `CS(=O)(=O)Nc1ccc(CNC(=O)/C=C/c2ccc(C(F)(F)F)nc2NCCO)cc1F` [Example 61, N-(3-Fluoro-4-methanesulfonylamino-benzyl)-3-[2-(2-hydroxy-ethylamino)-6-trifluoromethyl-pyridin-3-yl]-acrylamide], at vanilloid receptor (setting [4]), the half-maximal inhibitory concentration (IC50) was 4900 nM.
